Test results taken from article PMC5557916, “A new method to investigate the catalytic mechanism of YhdE pyrophosphatase by using a pyrophosphate fluorescence probe” (Scientific Reports, 2017).

B1: YhdE (Escherichia coli K-12; E33A) (protein)
chain: MTSLYLASGSPRRQELLAQLGVTFERIVTGIEAQRQPQESAQQYVVRLAREKARAGVAQTAKDLPVLGADTIVILNGEVLEKPRDAEHAAQMLRKLSGQTHQVMTAVALADSQHILDCLVVTDVTFRTLTDEDIAGYVASDEPLDKAGAYGIQGLGGCFVRKINGSYHAVVGLPLVETYELLSNFNALREKRDKHDG
notes: recombinant, cloned in vector pFO4, expressed in E. coli BL21(DE3); PDB entries are of the E33A mutant

Experiments:
YhdE = molecular target: T1, YhdE (Escherichia coli, UniProt P25536); test: fluorescence PPi sensor (4-isoACBA-Zn(II)), real-time; type: biochemical; details: 20 mM HEPES pH 7.0, 0.4 mM Zn2+, 0.1 mM 4-isoACBA, 298 K; 75 nM enzyme
T1 construct: recombinant, cloned in vector pFO4, expressed in E. coli BL21(DE3); PDB entries are of the E33A mutant

[1] = substrate: Cc1cn([C@H]2C[C@H](O)[C@@H](COP(=O)(O)OP(=O)(O)OP(=O)(O)O)O2)c(=O)[nH]c1=O; test: as above; type: biochemical, Escherichia coli; details: 20 mM HEPES pH 7.0, 0.4 mM Zn2+, 0.1 mM 4-isoACBA, 298 K, 7.5 μM enzyme, 25.0 °C

Row | Molecule | apparent Km (YhdE) | Km [1]
1 | Cc1cn([C@H]2C[C@H](O)[C@@H](COP(=O)(O)OP(=O)(O)OP(=O)(O)O)O2)c(=O)[nH]c1=O [dTTP] | somewhat surprisingly, is similar to that of the wild-type YhdE | –
2 | B1 | – | 75 µM
